Measured values taken from the supplement of paper PMC10307832.

Tests used:
Assay in all cases: relative viability (nuclei count vs DMSO), 5 days (fraction); higher = more cells survive
[1] = compound: CCc1cnn2c(NCc3ccc[n+]([O-])c3)cc(N3CCCC[C@H]3CCO)nc12 [Dinaciclib] + Cc1nc(NC(=O)N2CCC[C@H]2C(N)=O)sc1-c1ccnc(C(C)(C)C(F)(F)F)c1 [Alpelisib] (partner 2 µM)
Method in brief: (§1)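 Relative viability divides the nuclei count in treated wells by that in vehicle wells. Lung cancer cell lines were seeded in 1536-well plates, dosed by pin tool the next day, and fixed and stained after 5 days in one step with final 0.05% Triton X-100, 1% formaldehyde and 1 ug/ml Hoechst. Dosing was a single drug or a fixed anchor-drug dose plus five library-drug doses (not always all listed) in √10 steps, and values are medians of duplicate plates imaged at 4×.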

[2] = compound: CCc1cnn2c(NCc3ccc[n+]([O-])c3)cc(N3CCCC[C@H]3CCO)nc12 [Dinaciclib] + Cc1nc(Nc2ncc(C(=O)Nc3c(C)cccc3Cl)s2)cc(N2CCN(CCO)CC2)n1 [Dasatinib] (partner 0.075 µM)
Method in brief: as §1

[3] = compound: CCc1cnn2c(NCc3ccc[n+]([O-])c3)cc(N3CCCC[C@H]3CCO)nc12 [Dinaciclib] + N=C(N)NC(=N)NCCc1ccccc1 [Phenformin] (partner 250 µM)
Method in brief: as §1

[4] = compound: CCc1cnn2c(NCc3ccc[n+]([O-])c3)cc(N3CCCC[C@H]3CCO)nc12 [Dinaciclib] + CS(=O)(=O)CCNCc1ccc(-c2ccc3ncnc(Nc4ccc(OCc5cccc(F)c5)c(Cl)c4)c3c2)o1 [Lapatinib] (partner 2 µM)
Method in brief: as §1

[5] = compound: CCc1cnn2c(NCc3ccc[n+]([O-])c3)cc(N3CCCC[C@H]3CCO)nc12 [Dinaciclib] + CS(=O)(=O)N1CCN(Cc2cc3nc(-c4cccc5[nH]ncc45)nc(N4CCOCC4)c3s2)CC1 [Pictilisib] (partner 1 µM)
Method in brief: as §1

| Cell Line | relative viability ([1]; first compound 0.009487 µM) | relative viability ([1]; first compound 0.03 µM) | relative viability ([1]; first compound 0.09487 µM) | relative viability ([1]; first compound 0.3 µM) | relative viability ([2]; first compound 0.009487 µM) | relative viability ([2]; first compound 0.03 µM) | relative viability ([2]; first compound 0.09487 µM) | relative viability ([2]; first compound 0.3 µM) | relative viability ([3]; first compound 0.009487 µM) | relative viability ([3]; first compound 0.03 µM) | relative viability ([3]; first compound 0.09487 µM) | relative viability ([3]; first compound 0.3 µM) | relative viability ([4]; first compound 0.009487 µM) | relative viability ([4]; first compound 0.03 µM) | relative viability ([4]; first compound 0.09487 µM) | relative viability ([4]; first compound 0.3 µM) | relative viability ([5]; first compound 0.009487 µM) | relative viability ([5]; first compound 0.03 µM) | relative viability ([5]; first compound 0.09487 µM) | relative viability ([5]; first compound 0.3 µM) |
| --- | --- | --- | --- | --- | --- | --- | --- | --- | --- | --- | --- | --- | --- | --- | --- | --- | --- | --- | --- | --- |
| HCC-366 | 0.366 | 0.0443 | 0.0165 | 0.0153 | 0.597 | 0.14 | 0.0199 | 0.033 | 0.593 | 0.137 | 0.03 | 0.0292 | 0.557 | 0.0225 | 0.0184 | 0.0226 | 0.196 | 0.0396 | 0.0372 | 0.044 |
| HCC-827 | 0.879 | 0.601 | 0.126 | 0.123 | 0.285 | 0.221 | 0.135 | 0.184 | 0.385 | 0.339 | 0.121 | 0.123 | 0.191 | 0.183 | 0.149 | 0.132 | 0.998 | 0.446 | 0.242 | 0.223 |
| HOP-62 | 0.828 | 0.27 | 0.0713 | 0.0692 | 0.662 | 0.33 | 0.0666 | 0.0723 | 0.54 | 0.299 | 0.0816 | 0.0886 | 0.917 | 0.281 | 0.0612 | 0.0566 | 0.583 | 0.092 | 0.0651 | 0.0405 |
| IA-LM | 0.669 | 0.0488 | 0.0282 | 0.0261 |  |  |  |  |  |  |  |  | 0.73 | 0.0584 | 0.053 | 0.0435 | 0.327 | 0.0323 | 0.0279 | 0.0329 |
| LC-2-ad | 0.811 | 0.0609 | 0.0619 | 0.0681 | 0.279 | 0.149 | 0.149 | 0.175 | 0.334 | 0.219 | 0.181 | 0.18 | 0.9 | 0.0784 | 0.058 | 0.0576 | 0.305 | 0.071 | 0.0698 | 0.0506 |
| LCLC-97TM1 | 0.197 | 0.129 | 0.121 | 0.107 | 0.718 | 0.434 | 0.14 | 0.108 | 0.391 | 0.257 | 0.153 | 0.129 | 0.662 | 0.173 | 0.0769 | 0.0958 | 0.209 | 0.116 | 0.109 | 0.0963 |
| LCLC-103H | 0.934 | 0.844 | 0.248 | 0.113 | 0.41 | 0.432 | 0.0877 | 0.0685 | 0.292 | 0.327 | 0.11 | 0.0875 |  |  |  |  | 0.572 | 0.463 | 0.147 | 0.143 |
| LK-2 | 0.849 | 0.274 | 0.232 | 0.199 | 0.267 | 0.141 | 0.115 | 0.144 | 0.274 | 0.142 | 0.156 | 0.125 | 0.712 | 0.182 | 0.102 | 0.176 | 0.358 | 0.23 | 0.21 | 0.214 |
| LOU-NH91 | 0.73 | 0.462 | 0.253 | 0.235 | 0.564 | 0.287 | 0.243 | 0.179 | 0.645 | 0.249 | 0.208 | 0.151 | 0.738 | 0.302 | 0.254 | 0.238 | 0.507 | 0.288 | 0.254 | 0.229 |
| LU99A | 0.37 | 0.133 | 0.116 | 0.0993 | 0.514 | 0.142 | 0.115 | 0.124 | 0.709 | 0.14 | 0.0878 | 0.132 | 0.759 | 0.121 | 0.13 | 0.127 | 0.283 | 0.134 | 0.109 | 0.122 |
| LXF-289 | 1.01 | 0.264 | 0.0715 | 0.0695 | 0.282 | 0.0717 | 0.0492 | 0.0472 | 0.538 | 0.229 | 0.0748 | 0.0626 | 0.926 | 0.167 | 0.106 | 0.0884 | 0.843 | 0.0778 | 0.0596 | 0.0483 |
| NCI-H23 | 0.578 | 0.15 | 0.119 | 0.104 | 0.647 | 0.249 | 0.0991 | 0.114 | 0.807 | 0.31 | 0.114 | 0.116 | 0.31 | 0.128 | 0.12 | 0.129 | 0.41 | 0.148 | 0.126 | 0.145 |
| NCI-H322M | 0.737 | 0.718 | 0.196 | 0.211 | 0.248 | 0.248 | 0.247 | 0.28 | 0.41 | 0.315 | 0.244 | 0.267 | 0.637 | 0.325 | 0.243 | 0.201 | 0.497 | 0.262 | 0.2 | 0.583 |
| NCI-H441 | 0.594 | 0.128 | 0.147 | 0.15 | 0.562 | 0.186 | 0.146 | 0.144 | 0.688 | 0.184 | 0.164 | 0.136 |  |  |  |  | 0.589 | 0.126 | 0.111 | 0.115 |
| NCI-H522 |  |  |  |  | 0.979 | 0.589 | 0.36 | 0.319 | 0.598 | 0.5 | 0.341 | 0.339 |  |  |  |  |  |  |  |  |
| NCI-H1650 |  |  |  |  | 0.197 | 0.171 | 0.179 | 0.133 | 0.262 | 0.139 | 0.151 | 0.126 | 0.648 | 0.15 | 0.169 | 0.143 | 0.536 | 0.146 | 0.101 | 0.112 |
| NCI-H1703 | 0.419 | 0.119 | 0.0849 | 0.115 |  |  |  |  |  |  |  |  | 1.01 | 0.133 | 0.114 | 0.134 | 0.26 | 0.154 | 0.127 | 0.133 |
| SW 900 |  |  |  |  | 0.61 | 0.246 | 0.0591 | 0.0806 | 0.612 | 0.141 | 0.0751 | 0.101 |  |  |  |  |  |  |  |  |
